From the NIST ThermoML archive (doi:10.1021/je8007759)
± gives the expanded uncertainty stated by the source.

Test: xn = mol fraction of the nth substance listed

CC1CCC(=O)O1 (stereo not given) [γ-valerolactone] + O=C=O
mass density [kg/m3], Fluid (supercritical or subcritical phases), Pycnometric method
Conditions	308.2 K	313.2 K
7520 kPa, x1 = 0.1	928 ± 6	–
7560 kPa, x1 = 0.05	838 ± 9	–
7630 kPa, x1 = 0.01	665 ± 22	–
7630 kPa, x1 = 0.05	842 ± 9	–
7640 kPa, x1 = 0.025	781 ± 27	–
7650 kPa, x1 = 0.01	669 ± 20	–
7670 kPa, x1 = 0.01	673 ± 19	–
7670 kPa, x1 = 0.1	932 ± 5	–
7690 kPa, x1 = 0.01	677 ± 17	–
7710 kPa, x1 = 0.05	845 ± 7	–
7710 kPa, x1 = 0.15	979 ± 4	–
7720 kPa, x1 = 0.01	681 ± 17	–
7720 kPa, x1 = 0.025	786 ± 24	–
7750 kPa, x1 = 0.01	685 ± 21	–
7790 kPa, x1 = 0.01	690 ± 23	–
7810 kPa, x1 = 0.1	935 ± 5	–
7820 kPa, x1 = 0.025	792 ± 7	–
7830 kPa, x1 = 0.01	694 ± 17	–
7850 kPa, x1 = 0.05	850 ± 6	–
7870 kPa, x1 = 0.01	698 ± 16	–
7910 kPa, x1 = 0.01	703 ± 16	–
7930 kPa, x1 = 0.025	798 ± 14	–
7970 kPa, x1 = 0.01	710 ± 15	–
8050 kPa, x1 = 0.01	717 ± 14	–
8060 kPa, x1 = 0.025	804 ± 6	–
8110 kPa, x1 = 0.05	855 ± 5	–
8150 kPa, x1 = 0.01	724 ± 13	–
8170 kPa, x1 = 0.025	809 ± 11	–
8200 kPa, x1 = 0.15	–	962 ± 4
8230 kPa, x1 = 0.15	982 ± 4	–
8300 kPa, x1 = 0.01	734 ± 13	547 ± 42
8310 kPa, x1 = 0.01	–	557 ± 37
8320 kPa, x1 = 0.01	–	561 ± 39
8330 kPa, x1 = 0.01	–	565 ± 39
8340 kPa, x1 = 0.01	–	568 ± 36
8340 kPa, x1 = 0.05	–	809 ± 12
8340 kPa, x1 = 0.1	942 ± 4	–
8350 kPa, x1 = 0.01	–	572 ± 35
8350 kPa, x1 = 0.025	815 ± 7	–
8370 kPa, x1 = 0.01	–	576 ± 38
8370 kPa, x1 = 0.025	–	726 ± 44
8380 kPa, x1 = 0.01	–	581 ± 33
8380 kPa, x1 = 0.1	–	913 ± 14
8390 kPa, x1 = 0.01	–	589 ± 29
8400 kPa, x1 = 0.05	862 ± 5	–
8410 kPa, x1 = 0.01	–	592 ± 55
8410 kPa, x1 = 0.025	–	730 ± 29
8420 kPa, x1 = 0.01	–	596 ± 48
8430 kPa, x1 = 0.01	–	602 ± 30
8440 kPa, x1 = 0.01	–	606 ± 29
8450 kPa, x1 = 0.025	–	736 ± 22
8460 kPa, x1 = 0.01	744 ± 14	609 ± 28
8460 kPa, x1 = 0.05	–	814 ± 7
8470 kPa, x1 = 0.01	–	612 ± 28
8480 kPa, x1 = 0.01	–	616 ± 28
8500 kPa, x1 = 0.01	–	619 ± 23
8510 kPa, x1 = 0.025	–	740 ± 14
8520 kPa, x1 = 0.01	–	623 ± 4
8520 kPa, x1 = 0.1	–	916 ± 6
8530 kPa, x1 = 0.01	–	627 ± 23
8530 kPa, x1 = 0.025	822 ± 10	–
8550 kPa, x1 = 0.025	–	745 ± 15
8560 kPa, x1 = 0.01	–	630 ± 10
8580 kPa, x1 = 0.01	–	634 ± 18
8580 kPa, x1 = 0.15	–	965 ± 4
8600 kPa, x1 = 0.01	–	638 ± 33
8620 kPa, x1 = 0.025	–	750 ± 11
8630 kPa, x1 = 0.01	–	641 ± 16
8650 kPa, x1 = 0.01	–	645 ± 15
8670 kPa, x1 = 0.01	754 ± 9	–
8670 kPa, x1 = 0.05	–	820 ± 6
8680 kPa, x1 = 0.01	–	649 ± 19
8680 kPa, x1 = 0.1	946 ± 4	–
8700 kPa, x1 = 0.025	827 ± 6	755 ± 12
8720 kPa, x1 = 0.01	–	653 ± 14
8750 kPa, x1 = 0.01	–	657 ± 14
8750 kPa, x1 = 0.05	869 ± 5	–
8760 kPa, x1 = 0.1	–	920 ± 6
8780 kPa, x1 = 0.01	–	661 ± 14
8780 kPa, x1 = 0.025	–	760 ± 9
8810 kPa, x1 = 0.01	–	665 ± 8
8830 kPa, x1 = 0.15	985 ± 4	–
8850 kPa, x1 = 0.01	–	669 ± 8
8880 kPa, x1 = 0.025	–	765 ± 9
8880 kPa, x1 = 0.05	–	826 ± 6
8890 kPa, x1 = 0.01	–	673 ± 8
8910 kPa, x1 = 0.01	765 ± 8	–
8940 kPa, x1 = 0.01	–	677 ± 9
8940 kPa, x1 = 0.025	833 ± 7	–
8960 kPa, x1 = 0.025	–	771 ± 10
8990 kPa, x1 = 0.01	–	681 ± 11
9000 kPa, x1 = 0.1	–	923 ± 5
9040 kPa, x1 = 0.01	–	686 ± 16
9060 kPa, x1 = 0.025	–	775 ± 6
9070 kPa, x1 = 0.15	–	969 ± 4
9100 kPa, x1 = 0.01	–	690 ± 12
9140 kPa, x1 = 0.05	875 ± 5	–
9150 kPa, x1 = 0.01	–	694 ± 12
9180 kPa, x1 = 0.01	775 ± 7	–
9180 kPa, x1 = 0.025	840 ± 6	781 ± 9
9180 kPa, x1 = 0.05	–	835 ± 6
9200 kPa, x1 = 0.01	–	698 ± 12
9280 kPa, x1 = 0.01	–	703 ± 15
9280 kPa, x1 = 0.1	–	926 ± 6
9310 kPa, x1 = 0.025	–	786 ± 11
9340 kPa, x1 = 0.01	–	708 ± 16
9380 kPa, x1 = 0.1	953 ± 4	–
9400 kPa, x1 = 0.15	988 ± 4	–
9410 kPa, x1 = 0.025	845 ± 5	–
9430 kPa, x1 = 0.01	–	712 ± 9
9440 kPa, x1 = 0.05	–	841 ± 5
9450 kPa, x1 = 0.025	–	792 ± 7
9500 kPa, x1 = 0.01	787 ± 6	717 ± 7
9510 kPa, x1 = 0.05	881 ± 5	–
9550 kPa, x1 = 0.1	–	929 ± 4
9590 kPa, x1 = 0.01	–	721 ± 11
9590 kPa, x1 = 0.025	–	798 ± 6
9670 kPa, x1 = 0.15	–	972 ± 4
9680 kPa, x1 = 0.01	–	727 ± 10
9700 kPa, x1 = 0.025	852 ± 6	–
9710 kPa, x1 = 0.05	–	847 ± 5
9780 kPa, x1 = 0.025	–	803 ± 9
9880 kPa, x1 = 0.01	–	736 ± 7
9880 kPa, x1 = 0.1	–	932 ± 5
9890 kPa, x1 = 0.01	798 ± 6	–
9970 kPa, x1 = 0.025	–	810 ± 6
9980 kPa, x1 = 0.15	991 ± 4	–
10000 kPa, x1 = 0.1	958 ± 4	–
10030 kPa, x1 = 0.05	–	852 ± 5
10120 kPa, x1 = 0.01	–	746 ± 8
10180 kPa, x1 = 0.025	–	815 ± 7
10180 kPa, x1 = 0.1	–	936 ± 4
10310 kPa, x1 = 0.15	–	976 ± 4
10350 kPa, x1 = 0.01	810 ± 6	–
10370 kPa, x1 = 0.1	–	938 ± 4
10390 kPa, x1 = 0.01	–	755 ± 7
10390 kPa, x1 = 0.05	–	859 ± 5
10400 kPa, x1 = 0.025	–	821 ± 5
10540 kPa, x1 = 0.1	–	939 ± 5
10620 kPa, x1 = 0.15	–	978 ± 4
10630 kPa, x1 = 0.025	–	827 ± 4
10680 kPa, x1 = 0.01	–	767 ± 7
10720 kPa, x1 = 0.15	995 ± 4	–
10750 kPa, x1 = 0.05	–	865 ± 5
11040 kPa, x1 = 0.1	967 ± 4	–
11360 kPa, x1 = 0.15	999 ± 4	–
11550 kPa, x1 = 0.1	970 ± 4	–
11980 kPa, x1 = 0.15	1002 ± 4	–
12070 kPa, x1 = 0.1	974 ± 4	–
12550 kPa, x1 = 0.1	978 ± 4	–
12950 kPa, x1 = 0.15	1006 ± 4	–
13110 kPa, x1 = 0.1	981 ± 4	–
13620 kPa, x1 = 0.15	1009 ± 4	–
13640 kPa, x1 = 0.1	984 ± 4	–
14250 kPa, x1 = 0.1	989 ± 4	–
14410 kPa, x1 = 0.15	1013 ± 4	–
14770 kPa, x1 = 0.1	992 ± 4	–
15180 kPa, x1 = 0.15	1016 ± 4	–
16060 kPa, x1 = 0.15	1020 ± 4	–
16850 kPa, x1 = 0.15	1023 ± 4	–

308.2 K, Liquid, high pressure variable cell
Conditions	mass density [kg/m3]
x1 = 0.01	663 ± 6
x1 = 0.025	777 ± 4
x1 = 0.05	834 ± 4
x1 = 0.1	920 ± 4
x1 = 0.15	972 ± 4
